Measured values as given in US12662451B2, “Chemical compounds and uses thereof” (GLAXOSMITHKLINE INTELLECTUAL PROPERTY (NO.4) LIMITED, priority 2023, dated 2026).
Counter-ions that a name gives are not always drawn. Like-named read-outs stand apart in the source and are kept apart here.

Legend:
[1] = Cell culture media unbound percentage and stability by rapid equilibrium dialysis (Example C); assay type: in vitro ADME; settings: bovine, cell assay medium (RPMI-1640 with 10% fetal bovine serum), pH 7.4, rapid equilibrium dialysis, 4 hours at 37° C., read-out: Cell Culture Media Binding (% unbound)
How it was run: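 Percent unbound in cell assay medium came from the LC-MS/MS receiver:donor peak area ratio, with stability taken as the 240 min over 0 min ratio. Set-up: 1 μM nominal compound in medium dialysed against pH 7.4 PBS (100 mM phosphate, 150 mM NaCl), 4 h, 37° C, shaken, in triplicate.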

[2] = biological target: T1, recombinant full-length WRN protein (1-1432) (Homo sapiens, UniProt Q14191); assay: WRN unwinding activity, fluorogenic 384-well assay (Example A); assay type: biochemical; settings: WRN unwinding activity, 4 hr; Table 2; read-out: 4 hr UNW pIC50 (converted)
T1 construct: recombinant full-length WRN protein (1-1432)
T1 sequence (Q14191 whole entry): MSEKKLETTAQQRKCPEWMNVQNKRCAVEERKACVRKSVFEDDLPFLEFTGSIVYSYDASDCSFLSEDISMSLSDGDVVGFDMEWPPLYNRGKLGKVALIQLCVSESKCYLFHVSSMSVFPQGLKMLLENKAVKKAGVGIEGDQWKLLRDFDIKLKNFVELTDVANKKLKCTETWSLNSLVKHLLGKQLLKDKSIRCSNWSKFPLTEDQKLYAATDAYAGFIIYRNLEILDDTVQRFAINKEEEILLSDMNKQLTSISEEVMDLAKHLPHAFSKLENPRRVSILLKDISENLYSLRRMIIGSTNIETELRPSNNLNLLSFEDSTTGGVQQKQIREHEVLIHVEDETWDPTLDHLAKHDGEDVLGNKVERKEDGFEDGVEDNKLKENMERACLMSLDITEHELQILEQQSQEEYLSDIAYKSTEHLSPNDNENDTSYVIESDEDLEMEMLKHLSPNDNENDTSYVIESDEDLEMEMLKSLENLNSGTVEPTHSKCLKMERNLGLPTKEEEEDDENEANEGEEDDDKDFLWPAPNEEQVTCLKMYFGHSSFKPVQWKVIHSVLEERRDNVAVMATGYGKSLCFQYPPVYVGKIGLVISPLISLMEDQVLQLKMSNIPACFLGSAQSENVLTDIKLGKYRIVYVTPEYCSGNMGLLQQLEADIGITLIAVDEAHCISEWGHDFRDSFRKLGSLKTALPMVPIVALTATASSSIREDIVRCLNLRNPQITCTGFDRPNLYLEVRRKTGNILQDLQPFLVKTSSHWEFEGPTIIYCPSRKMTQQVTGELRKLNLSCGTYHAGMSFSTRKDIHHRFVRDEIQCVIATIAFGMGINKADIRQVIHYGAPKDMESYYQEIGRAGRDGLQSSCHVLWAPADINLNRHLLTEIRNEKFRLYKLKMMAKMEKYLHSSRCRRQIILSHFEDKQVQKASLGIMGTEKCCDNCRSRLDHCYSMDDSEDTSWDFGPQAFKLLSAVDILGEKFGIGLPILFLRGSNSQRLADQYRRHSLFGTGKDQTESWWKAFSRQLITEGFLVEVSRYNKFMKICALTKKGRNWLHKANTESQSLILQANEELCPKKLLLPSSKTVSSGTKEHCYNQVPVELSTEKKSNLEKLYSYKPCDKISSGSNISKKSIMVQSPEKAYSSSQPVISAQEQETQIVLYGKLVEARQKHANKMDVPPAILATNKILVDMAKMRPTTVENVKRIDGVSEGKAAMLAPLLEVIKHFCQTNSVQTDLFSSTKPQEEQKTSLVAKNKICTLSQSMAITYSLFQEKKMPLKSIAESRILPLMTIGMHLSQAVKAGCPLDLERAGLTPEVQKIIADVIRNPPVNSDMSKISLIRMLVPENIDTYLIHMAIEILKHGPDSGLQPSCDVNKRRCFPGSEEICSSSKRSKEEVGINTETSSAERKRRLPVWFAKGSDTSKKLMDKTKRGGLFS
How it was run: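 Read-out is end-point unwinding of a fluorophore/quencher duplex (ex 525, em 598 nm) after 60 min with 200 μM ATP and 12 nM DNA (2× stocks), EDTA stop. Compound first sat 4 h with 200 pM WRN (2× stock) in pH 8.0 Tris buffer; four-parameter fit gives pIC50.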

[3] = tested on: SW48 human colorectal cancer cell line xenografts; assay: In vivo efficacy in mouse model bearing SW48 xenografts (Example D); settings: 100 mpk daily oral, 55th day, SW48 xenograft, female nude mice
Description: In Viva Efficacy Study of Test Compounds in Mouse Model Bearing SW48 Human Colorectal Cancer Cell Line Xenografts
Experiments were performed with female Crl:Nu-Foxn1^nu nude mice. Animals were housed under optimized hygienic condition with food and water at libitum and a 12 h:12 h light:dark cycle. Animals were allowed to acclimatize for at least 4 days before being enrolled in the experimental design.
SW48 human colorectal cancer cells (RRID:CVCL1724) were obtained from ATCC. The cells were cultured in RPMI 1640 with 10% Fetal Bovine Serum at 37° C. in atmosphere of 5% CO2 in air. To establish SW48 xenografts, cells were harvested and resuspended in serum free RPM11640 and Matrigel before inoculation and 5×10^6 SW48 tumor cells were injected subcutaneously in 100 μL volume using 27G1/2 needle. Cells were inoculated in the right hind flank of the animals.
Post cell inoculation, tumor growth was monitored daily, and animals were randomized into treatment groups (n=10/group) once the tumor volume reached an appropriate size (80-150 mm^3). Throughout the treatment period, both tumor volume and body weight were measured approximately twice a week. The tumor size, in mm^3, was computed using the formula: 0.5×L×W^2, where W=width and L=length of the tumor. To prepare a test compound for oral administration, between 30-120 mg of the test compound was dissolved in a vehicle solution consisting of 0.5% Methycellulose (cp 400) and 0.5% Tween 80. The compound was freshly prepared one hour prior to daily administration. If turbidity was observed, the solution was vortexed at over 2000 rpm for 10 minutes and mixed with a 1 mL syringe. The resulting solution formulation was utilized for in vivo studies.
Animals received either a vehicle or test compounds at dosage of 30 or 100 mg/kg daily through oral gavage (10 ml/kg). Body weight was measured twice a week using the Ohaus electronic scale (STX421) and the data was automatically added to the study log. Moreover, daily clinical observations were performed to closely monitor the animals. Tumor growth inhibition was computed using the following formula:
[formula] where T=current group value; T0=Current group initial value; C=Control group Value; C0=control group initial value.
Data of tumor volume were exported and analyzed in GraphPad Prism (9.5). The analysis included a two-way ANOVA test, comparing the vehicle control vs. treatments at different time points, followed by a Tukey HSD post hoc test.
The calculation of tumor regression was conducted as per the following formula:
[formula] where Day 0=treatment start day; Δ tumor volume=mean tumor volume on the evaluation day—mean tumor volume Day 0.

[4] = tested on: SW48 human colorectal cancer cells; assay: Calculated free drug potency in SW48 cell assay, corrected with media free fraction (Example C); assay type: cell-based; settings: Homo sapiens, SW48, SW48 pCC50 corrected with measured free fraction in cell assay media
How it was run: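 Free drug potency derives from correcting SW48 assay concentrations with the unbound fraction in medium. That fraction came from RED against pH 7.4 PBS, 1 μM nominal compound, 4 h at 37 °C, quantified by LC-MS/MS peak area ratios at T=240 versus T=0 min.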

[5] = tested on: SW48 human colorectal cancer cells (MSI-H cancer cells); assay: SW48 cell viability, CellTiter-Glo, 120 hours (Example B); settings: for CC50: Homo sapiens
[6] = SW48, read-out: SW48 pCC50, measured potency from Example B, as repeated in Table 3 (converted)
[7] = SW48, 120 h, read-out: SW48 pCC50, SW48 cell viability, 120 hours incubation (converted), Table 2

Row | Structure (SMILES) | fraction unbound at 4 h, 1 µM [1] | IC50 [2] | mean tumor regression [3] | CC50 [4] | CC50 [5, 6] | SW48 pCC50 ([5]; SW48 cell viability, 120 hours incubation, Table 2) | CC50 [5, 7]
1 | Cc1nc2cc(S(=O)(=O)N(C)c3ccc([C@H]4CCC[C@@H](C(=O)Nc5ccc(C(F)(F)F)cc5F)[C@@H]4C(=O)O)cc3)ccc2n1C (single isomer, unassigned) [Example 83] | 0.065 | 2.51 nM | −24.01% | 12.9 nM | 251 nM | 6.6 | –
2 | CCO[C@@H]1C[C@H](c2ccc(N(C)S(=O)(=O)c3ccc4[nH]c(C)nc4c3)cc2)[C@@H](C(=O)O)[C@H](C(=O)Nc2ccc(C(F)(F)F)cc2F)C1 [Example 281, (1R,2S,4R,6R)-2-(4-((N,2-dimethyl-1H-benzo[d]imidazole)-5-sulfonamido)phenyl)-4-ethoxy-6-((2-fluoro-4-(trifluoromethyl)phenyl)carbamoyl)cyclohexane-1-carboxylic acid] | 0.148 | 1.58 nM | – | 117 nM | 794 nM | – | 794 nM
3 | CN(c1ccc([C@H]2CCC[C@@H](C(=O)Nc3ccc(C(F)(F)F)cc3F)[C@@H]2C(=O)O)cc1)S(C)(=O)=O [Example 285, (1R,2R,6S)-2-((2-fluoro-4-(trifluoromethyl)phenyl)carbamoyl)-6-(4-(N-methylmethylsulfonamido)phenyl) cyclohexane-1-carboxylic acid] | 0.549 | 31.6 nM | – | 3470 nM | 6310 nM | – | 6310 nM
4 | CCO[C@@H]1C[C@H](c2ccc(NS(=O)(=O)c3ccc4c(c3)nc(C)n4C)cc2)[C@@H](C(=O)O)[C@H](C(=O)Nc2ccc(C(F)(F)F)cc2F)C1 [Example 288, (1R,2S,4R,6R)-2-(4-((1,2-dimethyl-1H-benzo[d]imidazole)-5-sulfonamido)phenyl)-4-ethoxy-6-((2-fluoro-4-(trifluoromethyl)phenyl)carbamoyl)cyclohexane-1-carboxylic acid] | 0.0214 | 5.01 nM | – | 21.4 nM | 1000 nM | – | 1000 nM
5 | Cc1nc2cc(S(=O)(=O)N(C)c3ccc([C@H]4CCC[C@@H](C(=O)Nc5ccc(C(F)(F)F)cc5F)[C@@H]4C(=O)O)cc3)cc(CCN)c2n1C [Example 289, (1R,2S,6R)-2-(4-((7-(2-aminoethyl)-N,1,2-trimethyl-1H-benzo[d]imidazole)-5-sulfonamido)phenyl)-6-((2-fluoro-4-(trifluoromethyl)phenyl)carbamoyl)cyclohexane-1-carboxylic acid, hydrochloride] | 0.412 | 1.58 nM | – | 4070 nM | – | – | 10000 nM
6 | Cc1nc2cc(S(=O)(=O)N(C)c3ccc([C@H]4CCC[C@@H](C(=O)Nc5ccc(C(F)(F)F)cc5F)[C@@H]4C(=O)O)cc3)cc(CCN(C)C)c2n1C [Example 290, (1R,2S,6R)-2-(4-((7-(2-(dimethylamino)ethyl)-N,1,2-trimethyl-1H-benzo[d]imidazole)-5-sulfonamido)phenyl)-6-((2-fluoro-4-(trifluoromethyl)phenyl)carbamoyl)cyclohexane-1-carboxylic acid] | 0.411 | 1.58 nM | – | 162 nM | 398 nM | – | 398 nM
7 | Cc1cc([C@H]2CCC[C@@H](C(=O)Nc3ccc(C(F)(F)F)cc3F)[C@@H]2C(=O)O)ccc1N(C)S(=O)(=O)c1ccc2c(c1)nc(C)n2C [Example 295, (1R,2R,6S)-2-((2-fluoro-4-(trifluoromethyl)phenyl)carbamoyl)-6-(3-methyl-4-((N,1,2-trimethyl-1H-benzo[d]imidazole)-5-sulfonamido)phenyl)cyclohexane-1-carboxylic acid] | 0.118 | 1.58 nM | – | 186 nM | 1580 nM | – | 1580 nM
8 | Cc1nc2cc(S(=O)(=O)N(C)c3ccc([C@H]4CCC[C@@H](C(=O)Nc5ccc(C(F)(F)F)cc5F)[C@@H]4C(=O)O)cc3Cl)ccc2n1C [Example 296] | 0.0979 | 1.58 nM | – | 155 nM | 1580 nM | – | 1580 nM
9 | CCOC1CC(C(=O)Nc2ccc(C(F)(F)F)cc2)C(C(=O)O)C(c2ccc(N(C)S(=O)(=O)c3ccc4c(c3)nc(C)n4C)cc2)C1 [Example 330, rel-(1R,2R,4R,6S)-4-ethoxy-2-((4-(trifluoromethyl)phenyl)carbamoyl)-6-(4-((N,1,2-trimethyl-1H-benzo[d]imidazole)-5-sulfonamido)phenyl)cyclohexane-1-carboxylic acid] | 0.102 | 5.01 nM | – | 40.7 nM | 398 nM | – | 398 nM
10 | CN(c1ccc([C@H]2CCC[C@@H](C(=O)Nc3ccc(C(F)(F)F)cc3F)[C@@H]2C(=O)O)cc1)S(=O)(=O)c1ccc2c(c1)nc(Cl)n2C [Example 365, (1R,2S,6R)-2-(4-((2-chloro-N,1-dimethyl-1H-benzo[d]imidazole)-5-sulfonamido)phenyl)-6-((2-fluoro-4-(trifluoromethyl)phenyl)carbamoyl)cyclohexane-1-carboxylic acid] | 0.0658 | 3.16 nM | – | 26.3 nM | 398 nM | – | 398 nM
11 | CN(c1ccc([C@H]2CCC[C@@H](C(=O)Nc3ccc(C(F)(F)F)cc3F)[C@@H]2C(=O)O)cc1)S(=O)(=O)c1ccc2c(c1)nc(CO)n2C [Example 372, (1R,2R,6S)-2-((2-fluoro-4-(trifluoromethyl)phenyl)carbamoyl)-6-(4-((2-(hydroxymethyl)-N,1-dimethyl-1H-benzo[d]imidazole)-5-sulfonamido)phenyl)cyclohexane-1-carboxylic acid] | 0.208 | 1.58 nM | – | 41.7 nM | 200 nM | – | 200 nM
12 | CCO[C@@H]1C[C@H](c2ccc(N(C)S(=O)(=O)c3ccc4c(c3)nc(CO)n4C)cc2)[C@@H](C(=O)O)[C@H](C(=O)Nc2ccc(C(F)(F)F)cc2F)C1 [Example 373, (1R,2R,4R,6S)-4-ethoxy-2-((2-fluoro-4-(trifluoromethyl)phenyl)carbamoyl)-6-(4-((2-(hydroxymethyl)-N,1-dimethyl-1H-benzo[d]imidazole)-5-sulfonamido)phenyl)cyclohexane-1-carboxylic acid] | 0.175 | 1.58 nM | – | 17.4 nM | 100 nM | – | 100 nM
13 | Cc1nc2cc(S(=O)(=O)N(C)c3ccc([C@H]4CCC[C@@H](C(=O)Nc5ccc(C(C)C)cc5)[C@@H]4C(=O)O)cc3)ccc2n1C [Example 396, (1R,2R,6S)-2-((4-isopropylphenyl)carbamoyl)-6-(4-((N,1,2-trimethyl-1H-benzo[d]imidazole)-5-sulfonamido)phenyl)cyclohexane-1-carboxylic acid] | 0.0717 | 1.58 nM | – | 45.7 nM | 631 nM | – | 631 nM
